The subject of series [1] is ADP-induced platelet aggregation. Briefly: Inhibition of ADP-induced platelet aggregation in rats ex vivo (Born's method). Also on record: species or system rat. As to conditions: for Platelet Aggregation (%): male Wistar rats, ADP 1.0 μM, mean ± SD n = 6; for antiplatelet effect (in words): rat ex vivo. Here is the method:
Two hours after administration, rats were anesthetized using sodium pentobarbital and blood samples collected from the abdominal aorta for platelet aggregation tests using Born’s method. ADP (1.0 μM, Sigma-Aldrich, Co., St. Louis, MO, USA) was used as agonist for platelet aggregation. Platelet aggregation was measured using a coagulation analyzer (NJ4, Beijing Precil Instrument Company, Beijing, China).

Series [2] concerns CYP2C19. The settings on record: cited from earlier work.
The conditions of series [3]: rat, 1000 ng/mL.
Procedure: Blood samples (100 μL) were collected every 10 min over 120 min, mixed with methanol (950 μL), water (50 μL) and an internal standard (IS) solution (diazepam, 100 μL, 100 ng/mL) and centrifuged at low temperature at 13,000 rpm. […] This was carried out using an Agilent 1100 Series HPLC system (degasser, pump, auto sampler, and column oven, Agilent Technologies, Santa Clara, CA, USA) coupled to an AB SCIEX Qtrap 2000 mass spectrometer (Applied Biosystems Sciex, Ottawa, ON, Canada) with an ESI source operated in the positive ion mode. Data acquisition and integration were performed by Analyst software (version 1.3.2, Applied Biosystems Sciex, Ottawa, ON, Canada). Chromatography was performed on a ZORBAX Extend-C18 column (150 mm × 4.6 mm i.d., 5 μm, Agilent Technologies, Santa Clara, CA, USA) maintained at 40 °C using methanol and 0.1% aqueous formic acid (20:80, v/v) as mobile phase delivered at a flow rate of 1.0 mL/min. The injection volume was 20 μL. A 50:50 split of the column eluent was made by means of a T-piece. The mass spectrometer was operated at unit resolution for Q1 and Q3 in the multiple reaction monitoring (MRM) mode with a dwell time of 200 ms per MRM channel. […] QC samples were prepared independently at concentrations of 3, 30, and 800 ng/mL in the same way. […]
Series [4] concerns esterases. As to conditions: cited from earlier work.
The conditions of series [5]: rat; cited from earlier work.
The mark [6] stands for this setting: ex vivo 2 h after oral dose 7.8 μmol/kg.

The text below walks through data of publication PMC6274316 (Molecules, 2016).

One may read the melting point as the temperature, or range, at which the solid turns liquid.

Each structure is given as a SMILES string. Entries after “also recorded” stand apart in the source; their conditions may differ. Marks after values point to notes of the source that are not given here.

In the case of `O=S(=O)(O)O.[2H]C([2H])([2H])OC(=O)[C@H](c1ccccc1Cl)N1CCc2sccc2C1` [Compound 8, Methyl-d3 (S)-2-(2-chlorophenyl)-2-(6,7-dihydrothieno[3,2-c]pyridin-5(4H)-yl)acetate bisulfate], in series [1] (setting [6]), the “Platelet Aggregation (%)” value stood at 36.6 ± 6.6%. The “antiplatelet effect (in words)” value in series [1] (oral dose 7.8 μmol/kg) was “potent inhibitors”.
The matching figures for `[2H]C([2H])([2H])OC(=O)[C@H](c1ccccc1Cl)N1CCC2SC(=O)C=C2C1` (stereo partly drawn) [Compound 9, Methyl-d3 (2S)-2-(2-chlorophenyl)-2-(2-oxo-2,6,7,7a-tetrahydrothieno[3,2-c]pyridin-5(4H)-yl)acetate]: 21.2 ± 7.6% and “potent antiplatelet agent”.
For `[2H]C([2H])([2H])OC(=O)[C@H](c1ccccc1Cl)N1CCc2sc(OC(C)=O)cc2C1` [Compound 10a, Methyl-d3 (S)-2-(2-acetoxy-6,7-dihydrothieno[3,2-c]pyridin-5(4H)-yl)-2-(2chlorophenyl)acetate], the “Platelet Aggregation (%)” value in series [1] (setting [6]) stood at 17.3 ± 8.2%. Further, in series [1] (oral dose 7.8 μmol/kg), the “antiplatelet effect (in words)” value is on record as “potent inhibitors; also recorded: potent antiplatelet activity”.
The like results for `Cl.[2H]C([2H])([2H])OC(=O)[C@H](c1ccccc1Cl)N1CCc2sc(OC(=O)CC)cc2C1` [Compound 10b, (S)-5-(1-(2-Chlorophenyl)-2-(methoxy-d3)-2-oxoethyl)-4,5,6,7-tetrahydrothieno[3,2-c]pyridin-2-yl propionate hydrochloride] were, in that order, 24.9 ± 9.7% and “potent antiplatelet activity”.
As for `[2H]C([2H])([2H])OC(=O)[C@H](c1ccccc1Cl)N1CCc2sc(OC(=O)CCC)cc2C1` [Compound 10c, (S)-5-(1-(2-Chlorophenyl)-2-(methoxy-d3)-2-oxoethyl)-4,5,6,7-tetrahydrothieno[3,2-c]pyridin-2-yl butyrate], the “Platelet Aggregation (%)” value in series [1] (setting [6]) is 29.9 ± 9.5%. In addition, the “antiplatelet effect (in words)” value in series [1] (oral dose 7.8 μmol/kg) is listed as “potent antiplatelet activity”.
In turn, `Cl.[2H]C([2H])([2H])OC(=O)[C@H](c1ccccc1Cl)N1CCc2sc(OC(=O)C(C)C)cc2C1` [Compound 10d, (S)-5-(1-(2-Chlorophenyl)-2-(methoxy-d3)-2-oxoethyl)-4,5,6,7-tetrahydrothieno[3,2-c]pyridin-2-yl isobutyrate hydrochloride] returned a melting point of 146.7 to 149.9 °C. In addition, in series [1] (setting [6]), the “Platelet Aggregation (%)” value came to 36.3 ± 4.5%. For the same compound, the “antiplatelet effect (in words)” value in series [1] (oral dose 7.8 μmol/kg) is “potent antiplatelet activity”.
In the case of `[2H]C([2H])([2H])OC(=O)[C@H](c1ccccc1Cl)N1CCc2sc(OC(=O)C3CC3)cc2C1` [Compound 10e, (S)-5-(1-(2-Chlorophenyl)-2-(methoxy-d3)-2-oxoethyl)-4,5,6,7-tetrahydrothieno[3,2-c]pyridin-2-yl cyclopro-panecarboxylate], the “Platelet Aggregation (%)” value in series [1] (setting [6]) was found to be 24.6 ± 10.0%. Also, the “antiplatelet effect (in words)” value in series [1] (oral dose 7.8 μmol/kg) is recorded as “anomalously potent; also recorded: potent antiplatelet activity”.
`[2H]C([2H])([2H])OC(=O)[C@H](c1ccccc1Cl)N1CCc2sc(OC(=O)C(C)(C)C)cc2C1` [Compound 10f, (S)-5-(1-(2-Chlorophenyl)-2-(methoxy-d3)-2-oxoethyl)-4,5,6,7-tetrahydrothieno[3,2-c]pyridin-2-yl pivalate] displayed a melting point of 105.4 to 107.1 °C. For the same compound, in series [1] (setting [6]), the “Platelet Aggregation (%)” value was 44.7 ± 4.1%.
In turn, `[2H]C([2H])([2H])OC(=O)[C@H](c1ccccc1Cl)N1CCc2sc(OC(=O)CCCCC)cc2C1` [Compound 10g, (S)-5-(1-(2-Chlorophenyl)-2-(methoxy-d3)-2-oxoethyl)-4,5,6,7-tetrahydrothieno[3,2-c]pyridin-2-yl hexanoate] gave a melting point of 49.4 to 52.7 °C. Besides, the “Platelet Aggregation (%)” value in series [1] (setting [6]) came to 35.2 ± 7.7%. In addition, the “antiplatelet effect (in words)” value in series [1] (oral dose 7.8 μmol/kg) is on record as “potent antiplatelet activity”.
For the compound `[2H]C([2H])([2H])OC(=O)[C@H](c1ccccc1Cl)N1CCc2sc(OC(=O)C(C)(C)CC)cc2C1` [Compound 10h, (S)-5-(1-(2-Chlorophenyl)-2-(methoxy-d3)-2-oxoethyl)-4,5,6,7-tetrahydrothieno[3,2-c]pyridin-2-yl 2,2-dimethylbutanoate], the melting point was in the range of 99.4 to 100.3 °C. Moreover, the “Platelet Aggregation (%)” value in series [1] (setting [6]) is on record as 48.5 ± 6.7%.
For `[2H]C([2H])([2H])OC(=O)[C@H](c1ccccc1Cl)N1CCc2sc(OC(=O)CCCCCCCCCCC)cc2C1` [Compound 10i, (S)-5-(1-(2-Chlorophenyl)-2-(methoxy-d3)-2-oxoethyl)-4,5,6,7-tetrahydrothieno[3,2-c]pyridin-2-yl laurate], the melting point is 35.8 to 37.6 °C. The “Platelet Aggregation (%)” value in series [1] (setting [6]) is 49.7 ± 4.0%.
The like results for `[2H]C([2H])([2H])OC(=O)[C@H](c1ccccc1Cl)N1CCc2sc(OC(=O)C=Cc3ccccc3)cc2C1` [Compound 10j, (S)-5-(1-(2-Chlorophenyl)-2-(methoxy-d3)-2-oxoethyl)-4,5,6,7-tetrahydrothieno[3,2-c]pyridin-2-yl cinnamate] were, in that order, 121.7 to 123.1 °C and 56.4 ± 6.9%.
Take `Cl.[2H]C([2H])([2H])OC(=O)[C@H](c1ccccc1Cl)N1CCc2sc(OC(=O)c3ccccc3)cc2C1` [Compound 10k, (S)-5-(1-(2-Chlorophenyl)-2-(methoxy-d3)-2-oxoethyl)-4,5,6,7-tetrahydrothieno[3,2-c]pyridin-2-yl benzoate hydrochloride]: in series [1] (setting [6]), the “Platelet Aggregation (%)” value is 43.6 ± 9.5%.
Consider `[2H]C([2H])([2H])OC(=O)[C@H](c1ccccc1Cl)N1CCc2sc(OC(=O)c3ccccc3C(F)(F)F)cc2C1` [Compound 10l, (S)-5-(1-(2-Chlorophenyl)-2-(methoxy-d3)-2-oxoethyl)-4,5,6,7-tetrahydrothieno[3,2-c]pyridin-2-yl 2-(trifluoromethyl)benzoate], for which the “Platelet Aggregation (%)” value in series [1] (setting [6]) is listed as 49.2 ± 4.6%.
Compound `[2H]C([2H])([2H])OC(=O)[C@H](c1ccccc1Cl)N1CCc2sc(OC(=O)c3cccnc3)cc2C1` [Compound 10m, (S)-5-(1-(2-Chlorophenyl)-2-(methoxy-d3)-2-oxoethyl)-4,5,6,7-tetrahydrothieno[3,2-c]pyridin-2-yl nicotinate] displayed a melting point of 92.1 to 94.8 °C. In addition, in series [1] (setting [6]), the “Platelet Aggregation (%)” value was determined as 37.4 ± 6.7%. For the same compound, the “antiplatelet effect (in words)” value in series [1] (oral dose 7.8 μmol/kg) is recorded as “strong potency; also recorded: potent antiplatelet activity”.
Regarding `[2H]C([2H])([2H])OC(=O)[C@@H](c1ccccc1Cl)N1CCc2sc(OC(C)=O)cc2C1` [Compound R-10a, Methyl-d3 (R)-2-(2-acetoxy-6,7-dihydrothieno[3,2-c]pyridin-5(4H)-yl)-2-(2chlorophenyl)acetate], in series [1] (setting [6]), the “Platelet Aggregation (%)” value is reported as 57.4 ± 5.0%. In addition, the “antiplatelet effect (in words)” value in series [1] (oral dose 7.8 μmol/kg) was “almost inactive”.
As for `COC(=O)[C@H](c1ccccc1Cl)N1CCc2sccc2C1` [clopidogrel, Clopidogrel], in series [2], the “contribution of CYP2C19 to the first step (to 2-oxoclopidogrel)” value is 44.9% and the “contribution of CYP2C19 to the second step (2-oxoclopidogrel to AM)” value is recorded as 20.6%. Also, in series [3], the “time after which concentration was below the limit of detection” value amounted to 70 min. Besides, in series [1] (setting [6]), the “Platelet Aggregation (%)” value is listed as 59.8 ± 8.4%. For the same compound, the “Platelet Aggregation (%)” value in series [1] (ex vivo 2 h after oral dose 78 μmol/kg (clopidogrel bisulfate, active control)) was 15.8 ± 8.0 ^b %. In series [1] (oral dose 7.8 μmol/kg), the “antiplatelet effect (in words)” value is “low activity”. Also, in series [1] (oral dose 78 μmol/kg), the “antiplatelet effect (in words)” value is given as “strong inhibitory effect”. Besides, in series [4], the “proportion hydrolyzed by esterases to inactive clopidogrel acid” value is on record as 85% and the “proportion of an oral dose metabolized to inactive metabolites” value is “more than 90%”.
With `COC(=O)[C@H](c1ccccc1Cl)N1CCc2sc(OC(C)=O)cc2C1` [vicagrel, reference compound], the “level of AM relative to clopidogrel” value in series [5] is “four-fold”. Besides, in series [1] (setting [6]), the “Platelet Aggregation (%)” value was determined as 20.0 ± 9.1%. Further, the “antiplatelet effect (in words)” value in series [1] (oral dose 7.8 μmol/kg) was “potent inhibitors”.
